Where “and” joins values, the source holds several entries; their conditions need not be identical. Equal values may be shown once. Read-outs that look alike come from different tables or passages of the source.
How the values were obtained:
[1] = tested on: LPS-induced acute lung injury (ALI); assay: Mouse model of LPS-induced ALI, BALF cell count and BALF protein; format: in vivo; details: dexamethasone 5 mg/kg IP at T=0 and 6, positive control in the experiments of the compound of that line; mean ± SEM
Protocol: LPS was instilled into the trachea of anesthetized mice. […] The efficacy endpoints were total cell counts and total protein in BALF. All studies were conducted using vehicle negative controls and dexamethasone (5 mg/kg IP at T=0 and 6) as a positive control. Data were analyzed by 1-way ANOVA followed by Tukey's multiple comparison test (GRAPHPAD PRISM® software, version 6.05). […] Reductions in BALF total protein were also observed. […]

[2] = Solubility of ARF6 prodrugs in various vehicles (Table 4); format: physicochemical
ARF6 = ARF6 (Homo sapiens, UniProt P62330); assay: ARF6 inhibition, biochemical fluorometric nucleotide exchange assay
Sequence of ARF6 (P62330 whole entry, species assumed): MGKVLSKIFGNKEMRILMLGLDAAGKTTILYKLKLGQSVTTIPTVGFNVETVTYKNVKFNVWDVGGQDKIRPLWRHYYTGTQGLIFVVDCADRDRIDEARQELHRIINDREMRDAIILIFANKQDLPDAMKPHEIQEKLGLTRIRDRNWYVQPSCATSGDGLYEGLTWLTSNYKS
From the text: These ARF6 inhibitors were discovered using a high-throughput biochemical, fluorometric nucleotide exchange assay to screen 100,000 compounds from a commercially available compound library. Medicinal chemistry optimization efforts have also been conducted. In some embodiments, the clinical potential of the discovered small molecule ARF6 inhibitors can be limited by poor solubility. Accordingly, the synthesis and development of water soluble prodrugs of ARF6 inhibitors can be advantageous. […]

[3] = Solubility in water and PBS pH 7.4 (Tables 1 and 2); format: physicochemical
[4] = tested on: multidrug-resistant Pseudomonas aeruginosa (PA); assay: Multidrug-resistant Pseudomonas aeruginosa mouse model of pneumonia; format: in vivo; details: NAV-AAR′ 38 and 64 mg/kg subcutaneous once daily for 6 days
Protocol: NAV-AAR′ is also active in a multidrug-resistant Pseudomonas aeruginosa (PA) mouse model of pneumonia. […] NAV-AAR′ was administered by subcutaneous injection once daily for 6 days. The antibiotic meropenem was ineffective against MDR PA in this model.

[5] = 20 mM Na citrate buffer, pH 3.1, aqueous buffer, kinetic from dmso stock, diluted from 10 mM solution in DMSO, read-out: Solubility (μM) 20 mM Na Citrate, pH 3.1
[6] = water, kinetic from dmso stock, diluted from 10 mM solution in DMSO, read-out: Solubility (μM) H2O
[7] = Table 2, water, read-out: Solubility Water
[8] = Table 1, water, read-out: Solubility Water
[9] = aqueous buffer, Table 1, PBS pH 7.4, read-out: Solubility PBS pH 7.4

Row | Compound | IC50 (ARF6; Table 1, read-out: ARF6 IC50) | solubility [3, 8] | solubility [3, 9] | other results
1 | C[C@@H]1C[C@H]2[C@@H]3CCC4=CC(=O)C=C[C@]4(C)[C@@]3(F)[C@@H](O)C[C@]2(C)[C@@]1(O)C(=O)CO [DEX, dexamethasone, reference compound] | – | – | – | percent reduction in LPS-induced increase in BALF cell count, DEX [1]: 64 ± 9% and 74 ± 5% and 63 ± 4% and 59 ± 5% and 70 ± 7%
2 | NCC(=O)Oc1cc([N+](=O)[O-])ccc1-c1cc(=O)[nH]c2c(-c3ccc(Cl)cc3)c(Cc3ccccc3)nn12.O=C(O)C(F)(F)F [Example III, [2-[2-Benzyl-3-(4-chlorophenyl)-5-oxo-4H-pyrazolo[1,5-a]pyrimidin-7-yl]-5-nitro-phenyl] 2-aminoacetate trifluoroacetate] | – | – | – | solubility [2, 5]: 325 µM; solubility [2, 6]: 375 µM
3 | C[C@H](N)C(=O)Oc1cc([N+](=O)[O-])ccc1-c1cc(=O)[nH]c2c(-c3ccc(Cl)cc3)c(Cc3ccccc3)nn12.O=C(O)C(F)(F)F [Example V, [2-[2-Benzyl-3-(4-chlorophenyl)-5-oxo-4H-pyrazolo[1,5-a]pyrimidin-7-yl]-5-nitro-phenyl] (2S)-2-aminopropanoate trifluoroacetate] | – | – | – | IC50 (ARF6; Table 4, read-out: ARF6 inhibition IC50): 1.9 µM; solubility [2, 5]: 160 µM; solubility ([2]; 0.1% Tween 80 in D5W, aqueous with cosolvent or surfactant or cyclodextrin, kinetic from dmso stock, diluted from 10 mM solution in DMSO, read-out: Solubility (μM) 0.1% Tween 80 in D5W): 5.4 µM; solubility ([2]; DPBS, pH 7.4, aqueous buffer, kinetic from dmso stock, diluted from 10 mM solution in DMSO, read-out: Solubility (μM) DPBS, pH 7.4): < 1 µM; solubility ([2]; saline or isotonic, thermodynamic from solid, D5W, prepared from powder, read-out: Solubility (μM) D5W Prepared from powder): 20 µM; solubility [2, 6]: 150 µM
4 | Cc1ccc(-c2c[nH]c3c(-c4ccc(Cl)cc4)c(Cc4ccccc4)nn3c2=O)c(O)c1 [NAV-AAC′] | – | – | – | IC50 (ARF6; Table 2, read-out: ARF6 IC50): 3.3 µM; solubility [3, 7]: < 1 mg/mL
5 | N#Cc1ccc(-c2cc(=O)[nH]c3c(-c4ccc(Cl)cc4)c(Cc4ccccc4)nn23)c(OC(=O)[C@@H](N)CCCCN)c1 [NAV-AAD] | 2.9 µM | 300 µM | < 1 µM | –
6 | NCCCC[C@H](N)C(=O)Oc1cc(F)ccc1-c1cc(=O)[nH]c2c(-c3ccc(Cl)cc3)c(Cc3ccccc3)nn12 [NAV-AAE] | 3.3 µM | – | – | –
7 | Cc1ccc(-c2cc(=O)[nH]c3c(-c4ccc(Cl)cc4)c(Cc4ccccc4)nn23)c(OC(=O)[C@@H](N)CCCCN)c1 [NAV-AAF] | > 50 µM | – | – | –
8 | O=c1cc(-c2ccc(F)cc2OP(=O)(O)O)n2nc(Cc3ccccc3)c(-c3ccc(Cl)cc3)c2[nH]1 [NAV-AAP] | 9.2 µM | – | – | –
9 | O=c1c(-c2ccc(F)cc2OP(=O)([O-])[O-])c[nH]c2c(-c3ccc(Cl)cc3)c(Cc3ccccc3)nn12.[Na+].[Na+] [NAV-AAP′] | – | – | – | IC50 (ARF6; Table 2, read-out: ARF6 IC50): 9.2 µM; solubility [3, 7]: > 50 mg/mL
10 | Cc1ccc(-c2cc(=O)[nH]c3c(-c4ccc(Cl)cc4)c(Cc4ccccc4)nn23)c(OP(=O)(O)O)c1 [NAV-AAQ] | 4.6 µM | > 50 mg/mL | – | –
11 | Cc1ccc(-c2cc(=O)[nH]c3c(-c4ccc(Cl)cc4)c(Cc4ccccc4)nn23)c(OP(=O)([O-])[O-])c1.[Na+].[Na+] [NAV-AAR] | – | > 50 mg/mL | – | –
12 | N#Cc1ccc(-c2cc(=O)[nH]c3c(-c4ccc(Cl)c(Cl)c4)c(C(F)(F)F)nn23)c(OC(=O)[C@@H](N)CCCCN)c1 [NAV-AA] | 1.9 µM | > 500 µM | 19 µM | –
13 | N#Cc1ccc(-c2cc(=O)[nH]c3c(-c4ccc(Cl)c(Cl)c4)c(C4CC4)nn23)c(OC(=O)[C@@H](N)CCCCN)c1 [NAV-AB] | 2.4 µM | 500 µM | < 1 µM | –
14 | O=c1cc(-c2ccc(F)cc2O)n2nc(Cc3ccccc3)c(-c3ccc(Cl)cc3)c2[nH]1 [NAV-AD] | 2.4 µM | < 1 µM | < 1 µM | –
15 | O=c1cc(-c2ccc(F)cc2O)n2nc(C3CC3)c(-c3ccc(Cl)c(Cl)c3)c2[nH]1 [NAV-AF] | 1.9 µM | 1.1 µM | < 1 µM | –
16 | NCCCC[C@H](N)C(=O)Oc1ccccc1-c1cc(=O)[nH]c2c(-c3ccc(Cl)c(Cl)c3)c(C(F)(F)F)nn12 [NAV-AG] | 26 µM | > 500 µM | 435 µM | –
17 | O=c1cc(-c2ccc(F)cc2O)n2nc(C(F)(F)F)c(-c3ccc(Cl)c(Cl)c3)c2[nH]1 [NAV-AW] | 1.6 µM | < 1 µM | 30 µM | –
18 | O=c1cc(-c2ccc(F)cc2O)n2nc(C(F)(F)F)c(-c3ccc(Cl)cc3)c2[nH]1 [NAV-AY] | 6.2 µM | 4.5 µM | 70 µM | –
19 | O=c1cc(-c2ccccc2O)n2nc(Cc3ccccc3)c(-c3ccc(Cl)cc3)c2[nH]1 [NAV-C] | 7.2 µM | 9.2 µM | 1.4 µM | –
20 | O=c1cc(-c2ccc(Cl)cc2O)n2nc(Cc3ccccc3)c(-c3ccc(Cl)cc3)c2[nH]1 [NAV-D] | 11 µM | < 1 µM | < 1 µM | –

Row | Compound | IC50 (ARF6; Table 1, read-out: ARF6 IC50) | solubility [3, 8] | solubility [3, 9] | other results
21 | O=c1cc(-c2ccccc2O)n2nc(C(F)(F)F)c(C3CCCCC3)c2[nH]1 [NAV-E] | 12 µM | < 1 µM | 68 µM | –
22 | O=c1cc(-c2ccc(Cl)cc2O)n2nc(C(F)(F)F)c(C3CCCCC3)c2[nH]1 [NAV-F] | 4.9 µM | < 1 µM | 21 µM | –
23 | O=c1cc(-c2ccccc2O)n2nc(CN3CCOCC3)c(-c3ccc(Cl)cc3)c2[nH]1 [NAV-G] | > 50 µM | 56 µM | 82 µM | –
24 | O=c1cc(-c2ccc(Cl)cc2O)n2nc(CN3CCOCC3)c(-c3ccc(Cl)cc3)c2[nH]1 [NAV-H] | 30 µM | 7 µM | 13 µM | –
25 | O=c1cc(-c2ccccc2O)n2nc(C3CC3)c(-c3ccc(Cl)c(Cl)c3)c2[nH]1 [NAV-I] | 21 µM | 29 µM | 1.8 µM | –
26 | O=c1cc(-c2ccc(Cl)cc2O)n2nc(C3CC3)c(-c3ccc(Cl)c(Cl)c3)c2[nH]1 [NAV-J] | 12 µM | < 1 µM | < 1 µM | –
27 | O=c1cc(-c2ccc(Cl)cc2O)n2nc(C(F)(F)F)c(-c3ccc(Cl)cc3)c2[nH]1 [NAV-K] | 4.2 µM | < 1 µM | 43 µM | –
28 | O=c1cc(-c2ccc([N+](=O)[O-])cc2O)n2nc(C3CC3)c(-c3ccc(Cl)c(Cl)c3)c2[nH]1 [NAV-L] | 6.2 µM | < 1 µM | 20 µM | –
29 | O=c1cc(-c2ccccc2O)n2nc(C(F)(F)F)c(-c3ccc(Cl)cc3)c2[nH]1 [NAV-M] | 10 µM | 4 µM | 43 µM | –
30 | O=c1cc(-c2ccccc2O)n2nc(C(F)(F)F)c(-c3ccc(Cl)c(Cl)c3)c2[nH]1 [NAV-O] | 2.8 µM | < 1 µM | 38 µM | –
31 | N#Cc1ccc(-c2cc(=O)[nH]c3c(-c4ccc(Cl)c(Cl)c4)c(C(F)(F)F)nn23)c(O)c1 [NAV-P] | 1.4 µM | 5.75 µM | 19.6 µM | –
32 | N#Cc1ccc(-c2cc(=O)[nH]c3c(-c4ccc(Cl)cc4)c(C(F)(F)F)nn23)c(O)c1 [NAV-Q] | 5.1 µM | < 1 µM | 11 µM | –
33 | N#Cc1ccc(-c2cc(=O)[nH]c3c(-c4ccc(Cl)cc4)c(Cc4ccccc4)nn23)c(O)c1 [NAV-R] | 1.9 µM | < 1 µM | 1.7 µM | –
34 | N#Cc1ccc(-c2cc(=O)[nH]c3c(-c4ccc(Cl)c(Cl)c4)c(C4CC4)nn23)c(O)c1 [NAV-S] | 2 µM | 10.2 µM | 14 µM | –
35 | O=c1cc(-c2ccc(C(F)(F)F)cc2O)n2nc(C(F)(F)F)c(-c3ccc(Cl)c(Cl)c3)c2[nH]1 [NAV-T] | 2.3 µM | 13 µM | 11 µM | –
36 | O=c1cc(-c2ccc(C(F)(F)F)cc2O)n2nc(Cc3ccccc3)c(-c3ccc(Cl)cc3)c2[nH]1 [NAV-U] | 6.7 µM | 20 µM | 14 µM | –
37 | O=c1cc(-c2ccc(C(F)(F)F)cc2O)n2nc(C3CC3)c(-c3ccc(Cl)c(Cl)c3)c2[nH]1 [NAV-V] | 3.2 µM | 30 µM | 6 µM | –
38 | NCCCC[C@H](N)C(=O)Oc1ccccc1-c1cc(=O)[nH]c2c(-c3ccc(Cl)cc3)c(Cc3ccccc3)nn12 [NAV-Y] | 30 µM | 438 µM | 144 µM | –
39 | NCCCC[C@H](N)C(=O)Oc1cc(Cl)ccc1-c1cc(=O)[nH]c2c(-c3ccc(Cl)cc3)c(C(F)(F)F)nn12 [NAV-Z] | 4.25 µM | 450 µM | 22 µM | –
40 | C[C@@H](O)[C@H]1C(=O)N2C(C(=O)O)=C(S[C@@H]3CN[C@H](C(=O)N(C)C)C3)[C@H](C)[C@H]12 [meropenem, reference compound] | – | – | – | survival in MDR PA pneumonia [4]: ineffective

From patent publication US11414442B2, “ARF6 inhibitors and related methods” (Navigen, Inc., priority 2017, dated 2022)
